Measured values taken from patent US8486977B2, “1,2,3-triazole derivatives for use as stearoyl-CoA desaturase inhibitors” (GlaxoSmithKline LLC, priority 2007, dated 2013).

biological target: T1, SCD (Rattus norvegicus, UniProt P07308); experiment: in vitro assay for SCD activity based on production of [3H]H2O; assay type: biochemical; conditions: SCD-containing rat microsomes (2 μg protein), [9,10-3H] stearoyl Coenzyme A 1 μM, 6 min incubation
T1 construct: SCD-containing rat microsomes (2 μg protein); from tissue
T1 sequence (P07308 1-358): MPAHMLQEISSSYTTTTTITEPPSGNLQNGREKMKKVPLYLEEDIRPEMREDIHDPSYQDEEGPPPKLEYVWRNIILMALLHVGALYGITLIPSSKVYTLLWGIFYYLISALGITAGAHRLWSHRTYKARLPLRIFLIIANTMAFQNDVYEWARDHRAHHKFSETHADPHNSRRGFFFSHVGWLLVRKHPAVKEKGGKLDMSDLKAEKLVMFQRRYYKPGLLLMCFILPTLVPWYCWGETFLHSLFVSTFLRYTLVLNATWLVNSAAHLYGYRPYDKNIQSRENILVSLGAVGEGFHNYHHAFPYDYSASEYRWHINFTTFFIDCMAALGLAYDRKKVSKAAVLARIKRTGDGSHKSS
Description: The compounds of the present invention may be analysed in vitro for SCD activity using an assay based on the production of [^3H]H2O, which is released during the enzyme-catalyzed generation of the monounsaturated fatty acyl CoA product. The assay is performed in a 96-well filtration plates. The titrated substrate used in the assay is the [9,10-^3H] stearoyl Coenzyme A. After incubation for 6 minutes of SCD-containing rat microsomes (2 μg protein) and substrate (1 μM), the labelled fatty acid acyl-CoA species and microsomes are absorbed with charcoal and separated from [^3H]H2O by centrifugation. The formation of [^3H]H2O is used as a measure of SCD activity. Compounds at concentrations starting at 10 μM to 0.1 nM or vehicle (DMSO) are preincubated for 5 minutes with the microsomes before addition of the substrate. The concentration-responses are fitted with sigmoidal curves to obtain IC50 values.

Row | IC50 [µM] | Structure (SMILES)
1 | > 10 | Cc1c(C(=O)Nc2cc(C(=O)O)cc(C(=O)O)c2)nnn1Cc1cccc(Cl)c1 [5-[({1-[(3-Chlorophenyl)methyl]-5-methyl-1H-1,2,3-triazol-4-yl}carbonyl)amino]-1,3-benzenedicarboxylic acid]
2 | > 10 | COC(=O)c1cc(NC(=O)c2nnn(Cc3ccccc3)c2C)cc(C(=O)OC)c1 [Dimethyl 5-({[5-methyl-1-(phenylmethyl)-lH-1,2,3-triazol-4-yl]carbonyl}amino)-1,3-benzenedicarboxylate]
3 | > 10 | COC(=O)c1cc(NC(=O)c2nnn(Cc3ccc(F)cc3)c2C)cc(C(=O)OC)c1 [Dimethyl 5-[({1-[(4-fluorophenyl)methyl]-5-methyl-1H-1,2,3-triazol-4-yl}carbonyl)amino]-1,3-benzenedicarboxylate]
4 | > 10 | COC(=O)c1cccc(NC(=O)c2nnn(Cc3ccc(Cl)c(Cl)c3)c2C)c1C [Methyl 3-[({1-[(3,4-dichlorophenyl)methyl]-5-methyl-1H-1,2,3-triazol-4-yl}carbonyl)amino]-2-methylbenzoate]
5 | > 10 | CNC(=O)c1cccc(NC(=O)c2nnn(Cc3ccc(Cl)c(Cl)c3)c2C)c1C [1-[(3,4-dichlorophenyl)methyl]-5-methyl-N-{2-methyl-3-[(methylamino)carbonyl]phenyl}-1H-1,2,3-triazole-4-carboxamide]
6 | > 10 | Cc1c(C(=O)Nc2ccc(OCCC(C)C)cc2)nnn1Cc1ccc(-c2ccccc2)cc1 [1-(4-Biphenylylmethyl)-5-methyl-N-{4-[(3-methylbutyl)oxy]phenyl}-1H-1,2,3-triazole-4-carboxamide]
7 | > 10 | CNC(=O)c1cc(NC(=O)c2nnn(Cc3ccc(Cl)c(Cl)c3)c2C)cc(C(=O)NC)c1 [5-[({1-[(3,4-Dichlorophenyl)methyl]-5-methyl-1H-1,2,3-triazol-4-yl}carbonyl)amino]-N,N′-dimethyl-1,3-benzenedicarboxamide]
8 | > 10 | COC(=O)c1cc(NC(=O)c2nnn(Cc3cccc(Cl)c3)c2C)cc(C(=O)OC)c1 [Dimethyl 5-[({1-[(3-chlorophenyl)methyl]-5-methyl-1H-1,2,3-triazol-4-yl}carbonyl)amino]-1,3-benzenedicarboxylate]
9 | > 10 | COC(=O)c1cc(NC(=O)c2nnn(Cc3ccc(Cl)c(Cl)c3)c2C)ccc1OC [Methyl 5-[({1-[(3,4-dichlorophenyl)methyl]-5-methyl-1H-1,2,3-triazol-4-yl}carbonyl)amino]-2-(methyloxy)benzoate]
10 | > 10 | COC(=O)c1ccc(NC(=O)c2nnn(Cc3ccccc3)c2C)cc1C(=O)OC [Dimethyl 4-({[5-methyl-1-(phenylmethyl)-lH-1,2,3-triazol-4-yl]carbonyl}amino)-1,2-benzenedicarboxylate]
11 | > 10 | COC(=O)c1cc(NC(=O)c2nnn(Cc3ccc(Cl)c(Cl)c3)c2C)cc(C(=O)OC)c1 [Dimethyl 5-[({1-[(3,4-dichlorophenyl)methyl]-5-methyl-1H-1,2,3-triazol-4-yl}carbonyl)amino]-1,3-benzenedicarboxylate]

Row | Structure (SMILES) | IC50 [µM]
12 | COc1ccc(NC(=O)c2nnn(Cc3ccc(C(C)C)cc3)c2C)cc1OC [N-[3,4-Bis(methyloxy)phenyl]-5-methyl-1-{[4-(1-methylethyl)phenyl]methyl}-1H-1,2,3-triazole-4-carboxamide] | > 10

tested on: not given; experiment: not given; conditions: not given

Row | melting point [°C] | Structure (SMILES)
13 | 145 | Cc1c(C(=O)Nc2cccc(C(C)O)c2)nnn1Cc1ccc(Cl)c(Cl)c1 (stereo not drawn) [Example 44, 1-[(3,4-Dichlorophenyl)methyl]-N-[3-(1-hydroxyethyl)phenyl]-5-methyl-1H-1,2,3-triazole-4-carboxamide]
14 | 125 | Cc1c(C(=O)Nc2ccc(OCc3ccccc3)cc2)nnn1Cc1ccccc1 [Example 7, 5-Methyl-1-(phenylmethyl)-N-{4-[(phenylmethyl)oxy]phenyl}-1H-1,2,3-triazole-4-carboxamide]
15 | 167 | CCOC(=O)c1ccc(NC(=O)c2nnn(Cc3ccc(Cl)c(Cl)c3)c2C)cc1 [Example 48, Ethyl 4-[({1-[(3,4-dichlorophenyl)methyl]-5-methyl-1H-1,2,3-triazol-4-yl}carbonyl)amino]benzoate]
16 | 144 | Cc1c(C(=O)Nc2ccc(CCO)cc2)nnn1Cc1ccc(Cl)c(Cl)c1 [Example 50, 1-[(3,4-Dichlorophenyl)methyl]-N-[4-(2-hydroxyethyl)phenyl]-5-methyl-1H-1,2,3-triazole-4-carboxamide]
17 | 191 | COC(=O)c1cc(NC(=O)c2nnn(Cc3cc(Cl)cc(Cl)c3)c2C)ccc1F [Example 47, Methyl 5-[({1-[(3,5-dichlorophenyl)methyl]-5-methyl-1H-1,2,3-triazol-4-yl}carbonyl)amino]-2-fluorobenzoate]
18 | 178 | Cc1c(C(=O)Nc2ccc(F)c(CO)c2)nnn1Cc1cc(Cl)cc(Cl)c1 [Example 59, 1-[(3,5-Dichlorophenyl)methyl]-N-[4-fluoro-3-(hydroxymethyl)phenyl]-5-methyl-1H-1,2,3-triazole-4-carboxamide]
19 | 169.8 | COC(=O)c1cc(NC(=O)c2nnn(Cc3ccc(Cl)c(Cl)c3)c2C)ccc1F [Example 32, Methyl 5-[({1-[(3,4-dichlorophenyl)methyl]-5-methyl-1H-1,2,3-triazol-4-yl}carbonyl)amino]-2-fluorobenzoate]
20 | 195.7 | COC(=O)c1ccc(F)c(NC(=O)c2nnn(Cc3ccc(Cl)c(Cl)c3)c2C)c1 [Example 36, Methyl 3-[({1-[(3,4-dichlorophenyl)methyl]-5-methyl-1H-1,2,3-triazol-4-yl}carbonyl)amino]-4-fluorobenzoate]
21 | 189.7 | Cc1c(C(=O)Nc2ccc(F)c(CO)c2)nnn1Cc1ccc(Cl)c(Cl)c1 [Example 53, 1-[(3,4-Dichlorophenyl)methyl]-N-[4-fluoro-3-(hydroxymethyl)phenyl]-5-methyl-1H-1,2,3-triazole-4-carboxamide]
